Columns and labels:
[1] = test system: hemolytic toxins; details: in the presence of 10 mM D-lactulose; cited from earlier work
[2] = test system: Chironex fleckeri (the Australian box jellyfish) venom; assay: Survival time following lethal doses of venom in mice; assay type: in vivo
[3] = test system: human washed red blood cells (RBC, 2%) subjected to Alatina moseri venom; assay: Venom-induced hemolysis of washed RBC, 96-well plate, plasma hemoglobin read spectrophotometrically; assay type: cell-based; details: 1 hour at 37° C., FIG. 1
Method: Using a 96-well plate, human washed red blood cells (RBC, 2%) were subjected to Alatina moseri venom (6.4 U/mL/%). And treated simultaneously with a dose of zinc gluconate administered to a final concentration of from 0 to 25 mM zinc gluconate in combination with a dose of copper gluconate administered to a final concentration of from 0 to 128 μM. At the end of the incubation period, the 96 well plate was centrifuged briefly at 4° C. to pellet red blood cells from plasma. Plasma hemoglobin levels were then determined spectrophotometrically.

Compound: OC[C@H]1O[C@@H](O[C@@H]2[C@@H](CO)O[C@](O)(CO)[C@H]2O)[C@H](O)[C@@H](O)[C@H]1O [D-lactulose]
- hemolysis [1]: dramatic absence of hemolysis

Compound: Zinc
- survival time [2]: increase survival time

Compound: copper gluconate
- inhibition of venom-induced hemolysis ([3]; copper gluconate (0 to 128 μM) with between 0 mM and 12.5 mM zinc gluconate): substantially increased the baseline inhibition
- hemolysis after exposure to venom ([3]; up to 128 μM copper gluconate added to 25 mM zinc gluconate): practically eliminated hemolysis

Compound: zinc gluconate
- inhibition of venom-induced hemolysis ([3]; zinc gluconate alone (baseline), 2% RBC, Alatina moseri venom 6.4 U/mL/%): baseline inhibition of venom-induced hemolysis

Reference: patent US20140248374A1, “COMPOSITIONS AND MULTI-STEP METHODS OF USING THE SAME FOR THE TREATMENT OF JELLYFISH STINGS” (UNIVERSITY OF HAWAII, priority 2011, published 2014)
